Laboratory results reported in ChEMBL document CHEMBL1201862, “PubChem BioAssay data set” (2004).
Activity calls are given as the source filed them.

How the values were obtained:
[1] = molecular target: Vascular endothelial growth factor receptor 2 (Homo sapiens, UniProt P35968); type: functional
Aurora kinase B = Aurora kinase B (Homo sapiens, UniProt Q96GD4); type: functional
Aurora kinase A = molecular target: T1, Aurora kinase A (Homo sapiens, UniProt O14965); type: functional;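 further: value from the Navigating the Kinome kinase panel profiling, panel entry STK6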
T1 sequence (O14965 whole entry): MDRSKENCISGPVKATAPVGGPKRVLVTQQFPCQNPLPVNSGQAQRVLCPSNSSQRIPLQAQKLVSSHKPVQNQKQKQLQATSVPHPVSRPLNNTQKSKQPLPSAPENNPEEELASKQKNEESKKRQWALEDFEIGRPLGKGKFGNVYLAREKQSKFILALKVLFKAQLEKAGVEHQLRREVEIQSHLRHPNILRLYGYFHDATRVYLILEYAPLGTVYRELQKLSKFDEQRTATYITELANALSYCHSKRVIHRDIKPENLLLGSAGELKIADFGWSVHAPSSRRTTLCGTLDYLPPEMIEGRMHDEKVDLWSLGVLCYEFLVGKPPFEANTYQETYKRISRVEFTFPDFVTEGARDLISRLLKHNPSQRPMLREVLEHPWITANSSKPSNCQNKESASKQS

Caspase-3 [2] = molecular target: T2, Caspase-3 (Homo sapiens, UniProt P42574); type: functional
T2 sequence (P42574 whole entry): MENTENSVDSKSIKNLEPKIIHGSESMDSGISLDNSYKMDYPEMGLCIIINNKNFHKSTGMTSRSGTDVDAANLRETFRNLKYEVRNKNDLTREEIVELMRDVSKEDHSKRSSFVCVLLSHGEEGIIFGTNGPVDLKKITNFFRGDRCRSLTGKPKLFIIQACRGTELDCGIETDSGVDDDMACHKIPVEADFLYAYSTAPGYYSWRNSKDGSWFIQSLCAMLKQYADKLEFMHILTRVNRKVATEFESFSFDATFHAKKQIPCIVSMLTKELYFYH

[3] = molecular target: T3, Sentrin-specific protease 7 (Homo sapiens, UniProt Q9BQF6); type: functional;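 further: Luminescence-based dose-response confirmation of ultra-high-throughput screening hits, measuring inhibition of SENP7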
T3 sequence (Q9BQF6 whole entry): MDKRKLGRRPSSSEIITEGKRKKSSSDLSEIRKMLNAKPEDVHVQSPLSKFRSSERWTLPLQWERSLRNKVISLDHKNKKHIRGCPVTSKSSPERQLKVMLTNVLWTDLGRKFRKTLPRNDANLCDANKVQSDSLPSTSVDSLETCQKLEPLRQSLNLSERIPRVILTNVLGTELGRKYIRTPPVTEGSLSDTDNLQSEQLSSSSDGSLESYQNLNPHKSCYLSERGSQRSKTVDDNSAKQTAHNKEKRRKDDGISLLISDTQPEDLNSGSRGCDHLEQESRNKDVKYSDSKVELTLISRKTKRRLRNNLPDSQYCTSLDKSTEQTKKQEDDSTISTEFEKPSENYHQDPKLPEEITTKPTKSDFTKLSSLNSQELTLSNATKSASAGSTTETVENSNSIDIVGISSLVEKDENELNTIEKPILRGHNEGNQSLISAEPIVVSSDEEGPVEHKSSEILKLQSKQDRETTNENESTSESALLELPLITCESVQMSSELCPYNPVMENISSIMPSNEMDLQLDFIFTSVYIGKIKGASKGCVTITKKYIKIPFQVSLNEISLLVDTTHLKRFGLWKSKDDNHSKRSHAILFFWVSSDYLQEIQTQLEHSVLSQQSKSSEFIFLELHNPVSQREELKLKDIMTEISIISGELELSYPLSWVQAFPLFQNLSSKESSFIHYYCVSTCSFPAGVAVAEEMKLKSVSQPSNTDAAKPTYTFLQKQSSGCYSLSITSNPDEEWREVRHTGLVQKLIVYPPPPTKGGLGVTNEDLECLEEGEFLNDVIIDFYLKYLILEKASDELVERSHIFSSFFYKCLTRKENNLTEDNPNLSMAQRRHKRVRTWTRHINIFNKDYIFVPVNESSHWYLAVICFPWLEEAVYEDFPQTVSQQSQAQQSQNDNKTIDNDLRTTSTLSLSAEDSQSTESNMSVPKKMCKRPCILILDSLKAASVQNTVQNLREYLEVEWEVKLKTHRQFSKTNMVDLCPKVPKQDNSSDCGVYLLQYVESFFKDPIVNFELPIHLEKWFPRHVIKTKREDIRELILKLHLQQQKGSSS

[4] = molecular target: T4, Sentrin-specific protease 8 (Homo sapiens, UniProt Q96LD8); type: functional;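 further: luminescence read-out of SENP8 inhibition, dose-response confirmation following an ultra-high-throughput screen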
T4 sequence (Q96LD8 whole entry): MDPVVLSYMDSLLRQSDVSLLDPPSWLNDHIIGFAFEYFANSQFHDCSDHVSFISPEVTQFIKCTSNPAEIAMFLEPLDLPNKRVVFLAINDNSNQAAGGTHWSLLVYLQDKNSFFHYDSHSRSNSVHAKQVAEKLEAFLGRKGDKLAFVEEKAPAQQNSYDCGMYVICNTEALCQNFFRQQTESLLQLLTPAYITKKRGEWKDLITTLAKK

[5] = molecular target: T5, Sentrin-specific protease 6 (Homo sapiens, UniProt Q9GZR1); type: functional
T5 sequence (Q9GZR1 whole entry): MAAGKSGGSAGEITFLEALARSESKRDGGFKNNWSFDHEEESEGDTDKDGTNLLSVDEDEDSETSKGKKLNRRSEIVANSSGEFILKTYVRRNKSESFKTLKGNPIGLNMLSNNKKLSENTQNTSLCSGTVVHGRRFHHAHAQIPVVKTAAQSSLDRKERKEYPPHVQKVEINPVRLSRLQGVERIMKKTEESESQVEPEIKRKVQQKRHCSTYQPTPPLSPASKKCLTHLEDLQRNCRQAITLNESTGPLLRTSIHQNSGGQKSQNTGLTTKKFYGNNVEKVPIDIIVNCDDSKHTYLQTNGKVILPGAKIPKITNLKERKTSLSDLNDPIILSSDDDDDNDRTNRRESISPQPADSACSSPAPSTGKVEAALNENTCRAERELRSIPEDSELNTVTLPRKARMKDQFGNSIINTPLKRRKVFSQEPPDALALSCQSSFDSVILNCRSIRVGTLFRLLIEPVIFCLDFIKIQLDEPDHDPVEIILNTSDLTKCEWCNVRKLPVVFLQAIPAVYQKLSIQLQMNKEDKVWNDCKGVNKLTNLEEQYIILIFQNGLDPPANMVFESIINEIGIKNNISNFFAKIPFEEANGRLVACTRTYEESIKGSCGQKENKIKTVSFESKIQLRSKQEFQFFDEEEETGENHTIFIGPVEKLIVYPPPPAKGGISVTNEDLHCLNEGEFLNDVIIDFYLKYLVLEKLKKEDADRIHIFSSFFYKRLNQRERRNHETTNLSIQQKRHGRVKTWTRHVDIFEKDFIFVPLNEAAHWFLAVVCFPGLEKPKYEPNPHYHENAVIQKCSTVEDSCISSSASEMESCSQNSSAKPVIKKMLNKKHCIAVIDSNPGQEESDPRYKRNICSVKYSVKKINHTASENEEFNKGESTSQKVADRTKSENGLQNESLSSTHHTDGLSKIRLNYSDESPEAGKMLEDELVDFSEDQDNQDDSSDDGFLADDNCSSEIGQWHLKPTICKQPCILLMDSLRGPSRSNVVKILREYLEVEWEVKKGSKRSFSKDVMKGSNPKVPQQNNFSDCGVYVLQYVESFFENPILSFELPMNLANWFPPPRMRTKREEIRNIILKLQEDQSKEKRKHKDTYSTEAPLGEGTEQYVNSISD

[6] = molecular target: Apoptotic protease-activating factor 1 (Homo sapiens, UniProt O14727); type: functional
Apoptotic protease-activating factor 1, sequence (O14727 whole entry): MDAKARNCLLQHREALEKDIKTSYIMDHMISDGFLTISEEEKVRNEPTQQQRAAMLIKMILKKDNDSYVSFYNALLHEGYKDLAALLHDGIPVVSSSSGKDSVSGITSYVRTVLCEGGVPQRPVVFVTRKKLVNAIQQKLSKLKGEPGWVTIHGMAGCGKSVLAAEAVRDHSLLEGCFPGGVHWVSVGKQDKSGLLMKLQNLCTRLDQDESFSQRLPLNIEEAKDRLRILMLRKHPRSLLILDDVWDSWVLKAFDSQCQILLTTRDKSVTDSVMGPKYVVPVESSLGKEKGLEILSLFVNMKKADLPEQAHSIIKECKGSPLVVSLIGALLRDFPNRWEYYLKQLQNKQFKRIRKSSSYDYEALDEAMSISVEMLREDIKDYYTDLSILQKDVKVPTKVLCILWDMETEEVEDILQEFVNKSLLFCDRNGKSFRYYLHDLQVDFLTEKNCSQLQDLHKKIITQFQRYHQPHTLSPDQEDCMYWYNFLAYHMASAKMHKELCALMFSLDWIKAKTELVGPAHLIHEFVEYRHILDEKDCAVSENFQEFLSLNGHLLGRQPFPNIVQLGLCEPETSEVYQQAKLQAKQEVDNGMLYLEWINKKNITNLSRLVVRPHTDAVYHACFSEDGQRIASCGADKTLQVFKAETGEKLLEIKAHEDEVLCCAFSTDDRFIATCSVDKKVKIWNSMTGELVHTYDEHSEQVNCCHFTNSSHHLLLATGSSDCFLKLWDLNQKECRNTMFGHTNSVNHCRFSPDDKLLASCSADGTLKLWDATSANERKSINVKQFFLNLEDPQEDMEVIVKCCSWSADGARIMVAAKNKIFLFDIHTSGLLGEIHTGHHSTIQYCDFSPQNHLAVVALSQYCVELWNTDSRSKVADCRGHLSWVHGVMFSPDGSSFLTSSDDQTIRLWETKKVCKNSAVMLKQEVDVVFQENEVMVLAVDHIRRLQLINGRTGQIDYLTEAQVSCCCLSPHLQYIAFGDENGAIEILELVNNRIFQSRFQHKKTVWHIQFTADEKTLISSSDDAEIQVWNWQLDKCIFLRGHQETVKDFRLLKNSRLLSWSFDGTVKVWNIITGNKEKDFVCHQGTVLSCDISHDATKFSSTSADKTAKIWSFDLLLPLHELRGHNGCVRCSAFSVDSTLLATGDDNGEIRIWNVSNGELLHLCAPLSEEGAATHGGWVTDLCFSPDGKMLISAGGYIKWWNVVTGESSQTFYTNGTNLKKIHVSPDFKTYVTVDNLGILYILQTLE

[7] = molecular target: T6, Mannose-6-phosphate isomerase (Homo sapiens, UniProt P34949); test: MPI inhibition at elevated mannose 6-phosphate – biochemical, fluorescence intensity, high mannose 6-phosphate, primary screen (AID 1220)
T6 sequence (P34949 whole entry): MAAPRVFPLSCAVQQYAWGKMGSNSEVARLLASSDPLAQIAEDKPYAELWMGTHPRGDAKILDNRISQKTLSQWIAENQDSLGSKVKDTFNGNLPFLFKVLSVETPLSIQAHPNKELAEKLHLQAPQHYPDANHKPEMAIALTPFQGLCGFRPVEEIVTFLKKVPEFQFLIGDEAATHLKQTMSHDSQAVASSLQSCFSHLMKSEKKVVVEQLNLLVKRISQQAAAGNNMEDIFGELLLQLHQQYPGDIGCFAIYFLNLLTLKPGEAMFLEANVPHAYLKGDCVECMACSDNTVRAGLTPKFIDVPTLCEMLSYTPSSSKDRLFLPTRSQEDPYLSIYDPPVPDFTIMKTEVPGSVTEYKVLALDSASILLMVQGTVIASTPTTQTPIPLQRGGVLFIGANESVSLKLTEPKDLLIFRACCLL

Cytochrome P450 2C9 = Cytochrome P450 2C9 (Homo sapiens, UniProt P11712)
Cytochrome P450 2C9, sequence (P11712 whole entry): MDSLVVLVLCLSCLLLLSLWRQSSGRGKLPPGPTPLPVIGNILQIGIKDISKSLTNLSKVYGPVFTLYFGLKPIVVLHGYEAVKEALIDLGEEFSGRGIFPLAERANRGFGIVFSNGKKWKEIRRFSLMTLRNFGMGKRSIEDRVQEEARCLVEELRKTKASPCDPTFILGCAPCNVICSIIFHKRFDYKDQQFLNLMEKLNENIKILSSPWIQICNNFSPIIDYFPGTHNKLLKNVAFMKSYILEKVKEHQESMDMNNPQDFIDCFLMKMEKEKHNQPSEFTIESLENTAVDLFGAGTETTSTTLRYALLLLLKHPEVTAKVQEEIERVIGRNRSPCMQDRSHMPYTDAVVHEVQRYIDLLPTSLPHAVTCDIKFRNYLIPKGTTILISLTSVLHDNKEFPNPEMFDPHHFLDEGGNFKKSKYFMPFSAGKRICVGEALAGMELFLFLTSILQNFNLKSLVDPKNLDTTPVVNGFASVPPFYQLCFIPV

Cytochrome P450 2D6 = Cytochrome P450 2D6 (Homo sapiens, UniProt P10635);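 further: CYP2D6 member of a cytochrome P450 panel assay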
Cytochrome P450 2D6, sequence (P10635 whole entry): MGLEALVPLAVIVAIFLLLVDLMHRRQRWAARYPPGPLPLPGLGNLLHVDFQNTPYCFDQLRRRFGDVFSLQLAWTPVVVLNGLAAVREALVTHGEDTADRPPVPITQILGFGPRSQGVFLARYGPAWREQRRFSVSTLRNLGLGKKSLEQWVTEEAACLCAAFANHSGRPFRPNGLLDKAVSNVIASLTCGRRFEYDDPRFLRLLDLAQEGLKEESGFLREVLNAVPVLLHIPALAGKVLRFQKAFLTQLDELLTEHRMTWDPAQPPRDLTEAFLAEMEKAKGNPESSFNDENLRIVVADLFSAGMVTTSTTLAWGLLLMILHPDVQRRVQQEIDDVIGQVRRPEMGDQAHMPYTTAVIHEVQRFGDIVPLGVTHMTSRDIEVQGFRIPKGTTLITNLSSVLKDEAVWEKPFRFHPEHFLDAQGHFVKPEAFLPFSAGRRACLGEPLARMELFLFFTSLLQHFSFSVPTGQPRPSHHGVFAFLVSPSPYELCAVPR

[8] = molecular target: T7, Neuropeptides B/W receptor type 1 (Homo sapiens, UniProt P48145); test: human NPBW1 receptor blockade, IC50 – cell-based, fluorescence, dose response, set 6, late-stage follow-up (AID 588583); type: functional
T7 sequence (P48145 whole entry): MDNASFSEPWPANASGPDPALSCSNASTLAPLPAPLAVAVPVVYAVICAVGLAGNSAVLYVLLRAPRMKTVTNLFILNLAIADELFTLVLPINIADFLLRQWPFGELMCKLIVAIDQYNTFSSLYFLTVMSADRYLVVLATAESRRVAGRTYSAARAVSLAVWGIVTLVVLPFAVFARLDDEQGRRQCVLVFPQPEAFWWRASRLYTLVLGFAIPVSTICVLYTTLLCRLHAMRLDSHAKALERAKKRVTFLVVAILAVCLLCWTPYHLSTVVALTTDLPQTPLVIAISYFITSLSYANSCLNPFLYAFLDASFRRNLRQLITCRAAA

[9] = molecular target: Melanin-concentrating hormone receptor 1 (Homo sapiens, UniProt Q99705); test: Late-stage fluorescence-based counterscreen for antagonists of the G-protein coupled receptor 7 (GPR7): cell-based dose response assay to identify antagonists of the melanin-concentrating hormone receptor 1 (MCHR1) Set 6.; type: functional
Melanin-concentrating hormone receptor 1, sequence (Q99705 whole entry): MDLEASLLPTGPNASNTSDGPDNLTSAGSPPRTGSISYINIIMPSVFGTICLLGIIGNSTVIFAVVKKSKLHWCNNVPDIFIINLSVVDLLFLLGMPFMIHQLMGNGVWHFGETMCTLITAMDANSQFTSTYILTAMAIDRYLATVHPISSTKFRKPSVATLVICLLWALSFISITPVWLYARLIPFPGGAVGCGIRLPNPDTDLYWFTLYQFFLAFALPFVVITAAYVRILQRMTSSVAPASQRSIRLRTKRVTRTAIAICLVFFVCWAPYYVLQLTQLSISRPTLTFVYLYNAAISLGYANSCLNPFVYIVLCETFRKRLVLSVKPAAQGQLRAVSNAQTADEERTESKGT

Vero = test: viability of Vero cells under compound – cytotoxicity control for flavivirus capping enzyme inhibitors (AID 588742); type: functional; conditions: Chlorocebus sabaeus
[10] = Luminescence Cell-Based Dose Response HTS to Identify Activators of Luciferase Translation or Activity in H4 […] Cells. [Related pubchem assays: 1829 (Project Summary), 1814 (Primary HTS)]; type: functional
[11] = molecular target: FAD-linked sulfhydryl oxidase ALR (Homo sapiens, UniProt P55789); test: ALR-catalysed DTT oxidation blockers – biochemical, H2O2 detection, luminescence, cherry-pick, dose response (AID 493248)
FAD-linked sulfhydryl oxidase ALR, sequence (P55789 whole entry): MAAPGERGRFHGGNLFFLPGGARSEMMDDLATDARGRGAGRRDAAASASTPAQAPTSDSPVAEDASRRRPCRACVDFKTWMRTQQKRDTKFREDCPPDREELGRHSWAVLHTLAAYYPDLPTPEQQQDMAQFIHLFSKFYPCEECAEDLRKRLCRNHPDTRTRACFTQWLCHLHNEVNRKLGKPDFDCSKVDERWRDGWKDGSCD

H4 = test: Luminescence Cell-Based Dose Response HTS to Identify Activators of 5'UTR Stem-Loop Driven Prion Protein mRNA Translation in H4 Neuroglioblastoma Cells. [Related pubchem assays: 1829 (Project Summary), 1814 (Primary HTS)]; type: functional; conditions: Homo sapiens
[12] = Luminescence Cell-Based Dose Confirmation HTS to Identify Activators of 5'UTR Stem-Loop Driven Alpha-Synuclein mRNA Translation in H4 Neuroglioblastoma Cells. [Related pubchem assays: 1829 (Project Summary), 1814 (Primary HTS)]; type: functional
Caspase-3 [13] = molecular target: T2, Caspase-3; test: SAR Analysis of small molecule inhibitors of Sentrin-specific proteases (SENPs) using a Caspase-3 Selectivity assay. [Related pubchem assays (depositor defined):AID2540, AID2599, AID434973, AID489001]; type: functional
[14] = molecular target: T4, Sentrin-specific protease 8; test: inhibition of human SENP8 cleavage activity – biochemical, luminescence, SAR follow-up (AID 504501); type: functional
[15] = molecular target: T3, Sentrin-specific protease 7; test: inhibition of human SENP7 cleavage activity – biochemical, luminescence, SAR follow-up (AID 504497); type: functional
[16] = molecular target: T5, Sentrin-specific protease 6; test: SAR Analysis of small molecule inhibitors of Sentrin-specific protease 6 (SENP6) using a Luminescent assay. [Related pubchem assays (depositor defined):AID2582, AID2599]; type: functional
[17] = molecular target: Cyclin-dependent kinase 19 (Homo sapiens, UniProt Q9BWU1); test: Navigating the Kinome. Panel member name: CDC2L6; type: functional
Cyclin-dependent kinase 19, sequence (Q9BWU1 whole entry): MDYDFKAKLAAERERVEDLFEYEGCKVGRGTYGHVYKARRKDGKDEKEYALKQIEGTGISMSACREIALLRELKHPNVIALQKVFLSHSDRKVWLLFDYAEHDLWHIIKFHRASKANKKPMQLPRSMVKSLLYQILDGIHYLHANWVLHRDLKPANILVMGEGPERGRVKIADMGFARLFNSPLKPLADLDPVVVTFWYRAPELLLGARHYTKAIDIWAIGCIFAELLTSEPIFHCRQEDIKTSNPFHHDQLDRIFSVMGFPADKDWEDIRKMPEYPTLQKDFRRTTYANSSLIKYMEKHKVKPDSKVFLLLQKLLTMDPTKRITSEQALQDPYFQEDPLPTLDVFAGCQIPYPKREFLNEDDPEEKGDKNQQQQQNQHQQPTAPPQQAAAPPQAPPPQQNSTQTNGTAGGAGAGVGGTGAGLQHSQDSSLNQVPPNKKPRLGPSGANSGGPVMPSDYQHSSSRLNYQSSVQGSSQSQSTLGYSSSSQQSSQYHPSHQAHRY

Vascular endothelial growth factor receptor 2, sequence (P35968 whole entry): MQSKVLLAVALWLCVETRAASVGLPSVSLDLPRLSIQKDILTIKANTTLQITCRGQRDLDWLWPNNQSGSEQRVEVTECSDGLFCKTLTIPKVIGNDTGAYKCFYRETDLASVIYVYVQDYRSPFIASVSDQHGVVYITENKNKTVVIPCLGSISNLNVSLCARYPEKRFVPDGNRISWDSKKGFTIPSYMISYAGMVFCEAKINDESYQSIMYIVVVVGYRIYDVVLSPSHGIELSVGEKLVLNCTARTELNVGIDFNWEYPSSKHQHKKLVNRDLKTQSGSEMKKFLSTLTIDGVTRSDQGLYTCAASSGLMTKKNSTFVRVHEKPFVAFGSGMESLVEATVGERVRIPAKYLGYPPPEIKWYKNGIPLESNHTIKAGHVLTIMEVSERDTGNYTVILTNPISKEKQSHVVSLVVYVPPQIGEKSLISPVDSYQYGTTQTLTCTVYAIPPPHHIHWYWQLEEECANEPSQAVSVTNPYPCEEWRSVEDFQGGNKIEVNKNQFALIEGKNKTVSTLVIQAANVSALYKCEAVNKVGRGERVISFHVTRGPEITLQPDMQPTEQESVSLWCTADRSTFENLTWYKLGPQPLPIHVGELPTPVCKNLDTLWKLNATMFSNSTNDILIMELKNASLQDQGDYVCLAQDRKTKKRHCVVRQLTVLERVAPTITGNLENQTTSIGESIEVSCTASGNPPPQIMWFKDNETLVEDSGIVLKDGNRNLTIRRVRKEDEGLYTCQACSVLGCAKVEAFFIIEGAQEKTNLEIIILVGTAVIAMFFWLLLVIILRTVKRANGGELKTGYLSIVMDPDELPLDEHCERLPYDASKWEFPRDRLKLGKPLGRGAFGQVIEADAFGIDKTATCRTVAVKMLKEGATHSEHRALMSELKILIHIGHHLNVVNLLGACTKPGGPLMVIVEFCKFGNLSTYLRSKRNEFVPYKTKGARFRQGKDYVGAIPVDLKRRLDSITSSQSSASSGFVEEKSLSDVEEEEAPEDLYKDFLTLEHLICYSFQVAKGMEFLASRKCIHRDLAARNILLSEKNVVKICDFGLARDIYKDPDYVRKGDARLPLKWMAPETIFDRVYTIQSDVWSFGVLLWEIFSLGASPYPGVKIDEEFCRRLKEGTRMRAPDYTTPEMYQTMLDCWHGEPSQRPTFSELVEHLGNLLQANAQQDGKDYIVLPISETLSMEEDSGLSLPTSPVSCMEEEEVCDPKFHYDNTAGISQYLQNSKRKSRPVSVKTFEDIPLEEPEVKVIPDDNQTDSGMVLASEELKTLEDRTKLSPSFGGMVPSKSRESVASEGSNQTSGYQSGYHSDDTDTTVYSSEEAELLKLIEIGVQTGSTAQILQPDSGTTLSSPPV
Aurora kinase B, sequence (Q96GD4 whole entry): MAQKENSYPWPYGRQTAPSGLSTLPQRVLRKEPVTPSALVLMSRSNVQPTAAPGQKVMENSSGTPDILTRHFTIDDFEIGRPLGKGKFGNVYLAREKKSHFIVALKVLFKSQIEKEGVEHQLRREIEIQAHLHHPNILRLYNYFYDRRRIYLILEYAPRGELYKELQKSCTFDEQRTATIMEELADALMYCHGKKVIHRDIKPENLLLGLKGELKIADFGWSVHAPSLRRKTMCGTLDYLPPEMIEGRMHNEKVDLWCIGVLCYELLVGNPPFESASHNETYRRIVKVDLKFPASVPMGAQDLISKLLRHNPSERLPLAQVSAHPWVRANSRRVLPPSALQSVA

## NC(=O)c1cccc2[nH]c(-c3ccc(N4CCN(Cc5ccccc5)CC4)nc3)nc12
[1]
  Ki: 2 µM (active)
Aurora kinase B
  Ki: 0.02 µM (active)
Aurora kinase A
  Ki: 0.501 µM (active)

## Nc1ccc(-c2nc3cc([N+](=O)[O-])ccc3[nH]2)cc1
Caspase-3 [2]
  IC50: 17.2 µM (active)
[3]
  IC50: 8.59 µM (active)
[4]
  IC50: 23.8 µM (active)
[5]
  IC50: 28.3 µM (active)

## Cc1ccc(NC(=O)CCc2c(C)nn(-c3ccc(N4CCCCC4)nn3)c2C)cc1F
Caspase-3 [2]
  IC50: 21.6 µM (active)
[3]
  IC50: 7.86 µM (active)
[4]
  IC50: 29.4 µM (active)
[5]
  IC50: 24.4 µM (active)

## O=C1OC(Nc2ccc3ncccc3c2)c2ccccc21 (stereo unspecified)
[6]
  IC50: 32.9 µM (active)
[7]
  IC50: > 50 µM (not active)

## Cc1ccc(-c2nn3c(C)nnc3c3ccccc23)cc1S(=O)(=O)NCc1ccccc1
[6]
  IC50: 9.2 µM (active)
Cytochrome P450 2C9
  AC50: 1.26 µM (inconclusive)
Cytochrome P450 2D6
  AC50: 15.8 µM (inconclusive)

## N#CC(c1ccc(F)c(F)c1)c1c(Cl)cnn(Cc2cccc3ccccc23)c1=O (stereo unspecified)
[8]
  IC50: 0.186 µM (active)
[9]
  IC50: 0.186 µM (active)

## O=C1c2sc3nc4n(c(=O)c3c2CCC1Br)CCCCC4 (stereo unspecified)
Vero
  CC50: 24.2 µM (active)
[10]
  EC50: 8.79 µM (active)
[11]
  AC50: 1.7 µM (active)
H4
  EC50: 7.07 µM (active)
[12]
  EC50: 5.38 µM (active)

## O=C(/C=C/c1ccc(OC2CSC2)cc1)c1ccccc1
Caspase-3 [13]
  IC50: 23.3 µM (active)
[14]
  IC50: 8.36 µM (active)
[15]
  IC50: 5.23 µM (active)
[16]
  IC50: 7.59 µM (active)

## CN(C)c1cc(NN=Cc2ccco2)nc(N(C)C)n1
Caspase-3 [13]
  IC50: > 99 µM (inactive)
[14]
  IC50: 75.6 µM (active)
[15]
  IC50: 35 µM (active)
[16]
  IC50: 17.5 µM (active)

## Cc1ccc(NC(=O)Nc2ccc(-c3c(C(C)C)sc4ncnc(N)c34)cc2)cc1
[17]
  Ki: > 100 µM (inactive)
Aurora kinase A
  Ki: 0.0794 µM (active)

## COc1cc(Nc2ncc(C(F)(F)F)c(N)n2)cc(OC)c1OC
[1]
  Ki: 3.98 µM (active)
Aurora kinase B
  Ki: 0.0398 µM (active)
Aurora kinase A
  Ki: 0.2 µM (active)
